Data: article PMC5500991, “Substituted arylsulphonamides as inhibitors of perforin-mediated lysis” (European Journal of Medicinal Chemistry, 2017)

Tests used:
[1] = Microsome stability, rat; type: in vitro ADME; conditions: parent (as sodium salt) remaining after 30 min, rat microsomes
Procedure: (§1) Microsome stability was carried out at Cyprotex using pooled human liver microsomes (male and female), pooled rat liver microsomes (male, Sprague Dawley rats), pooled mouse liver microsomes (male CD-1 mice) which were either prepared or purchased from a reputable commercial supplier. […] The final incubation volume was 25 μL. A control incubation was included for each compound tested where 0.1 M phosphate buffer pH 7.4 was added instead of NADPH (minus NADPH). Two control compounds were included with each species. All incubations were performed singularly for each test compound. Each compound was incubated for 0, 5, 15, 30 and 45 min. The control (minus NADPH) was incubated for 45 min only. The reactions were stopped by the addition of 50 μL methanol containing internal standard at the appropriate time points. The incubation plates were centrifuged at 2,500 rpm for 20 min at 4 °C to precipitate the protein. Following precipitation, the sample supernatants were combined in cassettes of up to 4 compounds and analysed using Cyprotex generic LC-MS/MS conditions. From a plot of ln peak area ratio (compound peak area/internal standard peak area) against time, the percentage compound remaining at 30 min was calculated. Results that were > 100% of matched control were defined as 100%.

[2] = Microsome stability, human; type: in vitro ADME; conditions: parent (as sodium salt) remaining after 30 min, human microsomes
Procedure: as §1

[3] = Stability in solution (water, 20 °C, 24 h); type: physicochemical; conditions: sodium salt, 24 h at 20 °C in water
Procedure: Test compounds were incubated (10 μM; < 2.5% DMSO in final concentration) in Milli Q water (n=3 tubes) at 20 °C for 24 h. (Eppendorf Thermomixer Comfort). Aliquots were collected (25 μL) just before the incubation (time “0 min”) and at 24 h. These samples were stored in a -80 °C freezer until the analysis by liquid chromatography with tandem mass spectrometry spectrometry (LC-MS/MS) – see next section for method development. Samples were thawed on wet ice on the day of assay. Thawed aliquots were mixed by vortex mixer, 10 μL of the sample transferred to a clean tube, 40 μL of ice cold acetonitrile added (containing internal standard compound), then centrifuged at 13,000 rpm for 5 min, 40 μL of clear supernatant transferred to an HPLC insert and mixed with 80 μL of 0.01% formic acid in water. Ten to 20 μL was injected onto the LC-MS/MS system. Results are based on the peak area ratio of drug to internal standard at time “0 h” (i.e. before the incubation and at the end i.e. “24 h”).

[4] = In vivo plasma pharmacokinetics in mice; conditions: mouse plasma, 10 mg/kg i.p. in 20% hydroxypropyl-β-cyclodextrin
Procedure: The in vivo PK parameters were measured for seven compounds selected on the basis of the in vitro assessment described above. Plasma pharmacokinetics were determined in male CD-1 mice for compounds 3, 10, 11, 26, 50, 58 and 59 (Table 6). Blood samples were collected at 5–8 time-points after dosing the compounds at 10 mg/kg in a solution of 20% hydroxypropyl-β-cyclodextrin by intraperitoneal (IP) injection. For analysis of the samples, chromatographic conditions were optimised by HPLC for each compound of interest and an internal standard. A liquid chromatography with tandem mass spectrometry (LC-MS/MS) method was then developed and validated for quantitation of each analyte.
PK studies were carried out in female C57BL/6J (female) mice using IP administration of test compound, dosing at 10 mg/kg in a solution of 20% hydroxypropyl-β-cyclodextrin. Mice (n=3 at each time point) were culled with excess inhalation of CO2 and blood collected by cardiac puncture at 5-8 time points after dosing in ice cold EDTA tubes. Plasma was separated by centrifuging at 6000 rpm for 5 min and stored at -80°C until analysis by LC-MS/MS. Frozen plasma was thawed on wet ice on the day of analysis. Ten μL of sample was transferred to a clean microcentrifuge tube and mixed with ice cold acetonitrile (40 μL containing internal standard) to precipitate the plasma proteins. The tubes were centrifuged at 13000 rpm for 5 min to obtain a clear supernatant which was mixed with 0.01% formic acid-water (1:2). Ten to twenty µL was injected into the LC-MS/MS to measure the analyte concentration in the sample. The samples were quantitated against a calibration curve of known analyte concentrations run in test species blank plasma (sourced from Innovative Research, USA). The concentration vs time data was then fitted into a pharmacokinetic software program (Phoenix WinNonlin v6.2) to calculate the PK parameters including T½, Cmax and AUC0-∞.

[5] = target: T1, perforin delivered by KHYG1 NK cells (Homo sapiens, UniProt P14222); assay: KHYG1 inhibitory assay: lysis of 51Cr-labelled K562 target cells by KHYG1 NK cells; type: cell-based; conditions: 51Cr-labelled K562 target cells co-incubated with KHYG1 human NK cells, vs untreated control; for inhibition at 10 µM: n = 4; for KHYG1 Inhibition (% at 10 μM): n = 4, 10 µM
T1 construct: The use of whole NK cells to deliver perforin provides a more realistic model of conditions in vivo; endogenous in cells; host or cells: KHYG1 human NK cells (effector); K562 leukemia target cells
T1 sequence (P14222 22-555): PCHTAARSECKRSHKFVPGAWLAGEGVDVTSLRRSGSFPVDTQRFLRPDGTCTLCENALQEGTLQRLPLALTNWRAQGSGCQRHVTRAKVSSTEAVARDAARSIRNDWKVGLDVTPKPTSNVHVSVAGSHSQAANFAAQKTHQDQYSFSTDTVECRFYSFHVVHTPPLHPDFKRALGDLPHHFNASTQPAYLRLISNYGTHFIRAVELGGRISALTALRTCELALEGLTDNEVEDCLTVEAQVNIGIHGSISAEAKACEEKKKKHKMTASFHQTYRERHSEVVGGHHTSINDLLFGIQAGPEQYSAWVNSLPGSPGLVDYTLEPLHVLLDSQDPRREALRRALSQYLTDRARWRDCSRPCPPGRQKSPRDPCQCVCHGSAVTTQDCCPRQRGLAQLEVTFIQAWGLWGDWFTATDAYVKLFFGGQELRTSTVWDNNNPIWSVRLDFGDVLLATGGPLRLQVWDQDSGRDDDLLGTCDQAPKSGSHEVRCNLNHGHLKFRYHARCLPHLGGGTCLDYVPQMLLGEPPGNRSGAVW
Procedure: The inhibitory function is then determined by identifying the number of untreated or inhibitor treated effector cells required to kill the same number of targets.

[6] = Microsome stability, mouse; type: in vitro ADME; conditions: parent (as sodium salt) remaining after 30 min, mouse microsomes
Procedure: as §1

[7] = Toxicity to KHYG1 NK cells (Trypan blue exclusion); type: cell-based, human; conditions: human, viability of KHYG1 NK cells after 24 h, n = 3
Procedure: (§2) The toxicity assay was carried out in exactly the same manner as the killing assay above, but instead of adding the labelled K562 target cells, 100 μL of RPMI 0.1% BSA was added. Cells were incubated for 4 h at 37 °C and then washed ×3 in RPMI + 0.1% BSA. […] Trypan blue was added to each well. Viable (clear) cells and total (clear + blue) cells were counted, and the percentage of viable cells was calculated compared to DMSO treated cell control (% viability).

[8] = Solubility of the sodium salt in water; type: physicochemical; conditions: sodium salt in water at room temperature
Procedure: The compound was dissolved in water until it was no longer soluble in order to achieve a supersaturated concentration. The suspensions were sonicated for 15 min. prior to centrifugation at 13,000 revolutions per minute (rpm) for 6 minutes. Supernatants were removed and then recentrifuged prior to dilution of at least two fold in water to avoid precipitation during HPLC analysis.

[9] = system: KHYG1 NK cells; assay: Toxicity to KHYG1 NK cells (Trypan blue exclusion); type: cell-based, human; conditions: viability of KHYG1 NK cells after 24 h, n = 3
Procedure: as §2

[10] = target: T2, recombinant perforin (Mus musculus, UniProt P10820); assay: Inhibition of perforin-mediated lysis of Jurkat cells (51Cr release); type: cell-based; conditions: recombinant perforin pre-incubated with compound 30 min; 51Cr-labelled Jurkat cells, 0.1% BSA, 4 h
T2 sequence (P10820 21-554): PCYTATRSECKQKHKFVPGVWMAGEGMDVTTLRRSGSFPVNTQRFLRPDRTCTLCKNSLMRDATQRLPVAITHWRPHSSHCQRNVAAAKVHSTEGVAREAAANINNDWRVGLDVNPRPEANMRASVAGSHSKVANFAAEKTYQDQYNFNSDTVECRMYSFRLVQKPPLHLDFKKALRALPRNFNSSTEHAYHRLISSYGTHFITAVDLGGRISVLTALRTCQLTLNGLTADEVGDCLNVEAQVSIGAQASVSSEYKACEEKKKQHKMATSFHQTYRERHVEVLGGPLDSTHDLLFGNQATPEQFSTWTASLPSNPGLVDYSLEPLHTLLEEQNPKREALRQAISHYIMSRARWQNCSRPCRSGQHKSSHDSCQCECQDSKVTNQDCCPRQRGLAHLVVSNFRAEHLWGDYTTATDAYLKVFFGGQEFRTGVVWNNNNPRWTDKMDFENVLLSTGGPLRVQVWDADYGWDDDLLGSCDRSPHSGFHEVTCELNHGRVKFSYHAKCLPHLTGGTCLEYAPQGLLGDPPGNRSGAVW
Excerpt: The supernatant was collected and assessed for its radioactive content on a gamma counter (Wallac Wizard 1470 automatic gamma counter).

| Microsome Stability (%) Rat [1] [%] | Microsome Stability (%) Human [2] [%] | Stability in Solution (% parent remaining) [3] [%] | AUC0-∞ [4] [µM·h] | Cmax [4] [µM] | T1/2 [4] [h] | inhibition at 10 µM [5] [%] | Microsome Stability (%) Mouse [6] [%] | solubility at 15 min [8] [µg/mL] | melting point [°C] | KHYG1 Inhibition (% at 10 μM) [5] [%] | Solubility [8] | Inhibition of Jurkat Cell Lysis IC50 [10] | SMILES | viability at 24 h, 10 µM [7] [%] | KHYG1 Viability (% at 10 μM) [9] |
| --- | --- | --- | --- | --- | --- | --- | --- | --- | --- | --- | --- | --- | --- | --- | --- |
| 99 | 95 | 100 | 2364 | 149 | 9.5 | 95 ± 2.5 | 97 | 4030 |  |  |  |  | CN1Cc2cc(-c3ccc(-c4cnc(Cl)c(NS(=O)(=O)c5ccc(F)cc5F)c4)s3)ccc2C1=O [Compound 11, 2,4-Difluoro-N-(2-chloro-5-(5-(2-methyl-1-oxoisoindolin-5-yl)thiophen-2-yl)pyridin-3-yl)benzenesulphonamide] | 94 ± 5.3 |  |
|  |  |  |  |  |  |  |  |  | > 310 |  |  |  | CN1Cc2cc(-c3ccc(-c4cncc(NS(=O)(=O)c5ccc(C(=O)O)cc5)c4)s3)ccc2C1=O [Compound 55, 4-(N-(5-(5-(2-Methyl-1-oxoisoindolin-5-yl)thiophen-2-yl)pyridin-3-yl)sulfamoyl)benzoic acid] |  | toxic to the NK cells |
| 89 | 73 | 100 | 415 | 105 | 2.5 | 96 | 100 | 671 |  | 95.6 ± 1.9 |  |  | CN1Cc2cc(-c3ccc(-c4cncc(NS(=O)(=O)c5ccccc5[N+](=O)[O-])c4)s3)ccc2C1=O [Compound 58, N-(5-(5-(2-Methyl-1-oxoisoindolin-5-yl)thiophen-2-yl)pyridin-3-yl)-2-nitrobenzenesulfonamide] | 98.7 ± 1.5 |  |
| 100 | 94 | 100 | 2885 | 236 | 6.6 | 93 | 96 | 428 |  | 92.5 ± 1.8 | negative impact on solubility |  | CN1Cc2cc(-c3ccc(-c4cnc(F)c(NS(=O)(=O)c5ccc(F)cc5F)c4)s3)ccc2C1=O [Compound 10, 2,4-Difluoro-N-(2-fluoro-5-(5-(2-methyl-1-oxoisoindolin-5-yl)thiophen-2-yl)pyridin-3-yl)benzenesulphonamide] | 92 ± 3 |  |
|  |  |  |  |  |  | 83.7 ± 3.2 |  |  | 282 to 285 |  |  | poor activity | CN1Cc2cc(-c3ccc(-c4cncc(NS(=O)(=O)c5cccc(C#N)c5)c4)s3)ccc2C1=O [Compound 49, 3-Cyano-N-(5-(5-(2-methyl-1-oxoisoindolin-5-yl)thiophen-2-yl)pyridin-3-yl)benzenesulfonamide] | 94.4 ± 7.1 |  |
|  |  |  |  |  |  |  |  |  | 269 to 272 |  |  | activity is abolished | CN1Cc2cc(-c3ccc(-c4ccc(NS(=O)(=O)c5ccc(F)cc5F)nc4)s3)ccc2C1=O [Compound 4, 2,4-Difluoro-N-(5-(5-(2-methyl-1-oxoisoindolin-5-yl)thiophen-2-yl)pyridin-2-yl)benzenesulfonamide] |  |  |
|  |  |  |  |  |  | 50 |  |  | 268 to 271 | 50.3 ± 8.5 |  | complete loss of potency | Cc1ccc(NS(=O)(=O)c2ccc(F)cc2F)cc1-c1ccc(-c2ccc3c(c2)CN(C)C3=O)s1 [Compound 13, 2,4-Difluoro-N-(4-methyl-3-(5-(2-methyl-1-oxoisoindolin-5-yl)thiophen-2-yl)phenyl)benzenesulfonamide] | 91.7 ± 10 |  |
